According to patent EP1570862A1, “Highly soluble binary cyclodextrin inclusion complexes” (priority 2004, dated 2005):
Converted amounts (≈) assume the structure as drawn.

Test: physchem
Details: water
Method: The samples were mechanically shaken in a thermostatic bath shaker (~ 200 rpm) to attain thermal equilibrium, an aliquot was centrifuged (when necessary) and filtered using a 0.45µm filter (cellulose acetate or cellulose nitrate, Advantec MFS Inc., Duplin, USA).
The samples were shaken for different time intervals.

solubility thermodynamic: 115 mM (≈ 131 mg/mL)
Compound: OC[C@H]1O[C@@H]2O[C@H]3[C@H](O)[C@@H](O)[C@@H](O[C@H]4[C@H](O)[C@@H](O)[C@@H](O[C@H]5[C@H](O)[C@@H](O)[C@@H](O[C@H]6[C@H](O)[C@@H](O)[C@@H](O[C@H]7[C@H](O)[C@@H](O)[C@@H](O[C@H]8[C@H](O)[C@@H](O)[C@@H](O[C@H]1[C@H](O)[C@H]2O)O[C@@H]8CO)O[C@@H]7CO)O[C@@H]6CO)O[C@@H]5CO)O[C@@H]4CO)O[C@@H]3CO [β-cyclodextrin]
